Results reported in PubChem BioAssay (NCI).
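How tested: cells in 96-well plates exposed to compound for 48 hours at five concentrations. Abbreviation: GI50, concentration required for 50% inhibition of growth. TGI is the concentration that stops growth completely.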

How the values were obtained:
Test in all cases: NCI anticancer screen, dose series, 48 h
786-0 renal = test system: 786-0 renal
A498 renal = test system: A498 renal
A549 NSCLC = test system: A549 NSCLC
ACHN renal = test system: ACHN renal
BT-549 breast = test system: BT-549 breast
CAKI-1 renal = test system: CAKI-1 renal
COLO 205 colon = test system: COLO 205 colon
DU-145 prostate = test system: DU-145 prostate
HCC-2998 colon = test system: HCC-2998 colon
HCT-116 colon = test system: HCT-116 colon
HCT-15 colon = test system: HCT-15 colon
HL-60(TB) leukemia = test system: HL-60(TB) leukemia
HOP-62 NSCLC = test system: HOP-62 NSCLC
HOP-92 NSCLC = test system: HOP-92 NSCLC
HS 578T breast = test system: HS 578T breast
HT29 colon = test system: HT29 colon
IGROV1 ovarian = test system: IGROV1 ovarian
K-562 leukemia = test system: K-562 leukemia
KM12 colon = test system: KM12 colon
M14 melanoma = test system: M14 melanoma
MALME-3M melanoma = test system: MALME-3M melanoma
MCF7 breast = test system: MCF7 breast
MDA-MB-231 breast = test system: MDA-MB-231 breast
MDA-MB-435 = test system: MDA-MB-435
NCI-H226 lung = test system: NCI-H226 lung
NCI-H23 lung = test system: NCI-H23 lung
NCI-H460 lung = test system: NCI-H460 lung
NCI-H522 lung = test system: NCI-H522 lung
NCI/ADR-RES ovarian = test system: NCI/ADR-RES ovarian
OVCAR-3 ovarian = test system: OVCAR-3 ovarian
OVCAR-4 ovarian = test system: OVCAR-4 ovarian
OVCAR-5 ovarian = test system: OVCAR-5 ovarian
PC-3 prostate = test system: PC-3 prostate
RPMI-8226 leukemia = test system: RPMI-8226 leukemia
RXF 393 renal = test system: RXF 393 renal
SF-268 CNS = test system: SF-268 CNS
SF-295 CNS = test system: SF-295 CNS
SF-539 CNS = test system: SF-539 CNS
SK-MEL-2 melanoma = test system: SK-MEL-2 melanoma
SK-MEL-28 melanoma = test system: SK-MEL-28 melanoma
SK-MEL-5 melanoma = test system: SK-MEL-5 melanoma
SK-OV-3 ovarian = test system: SK-OV-3 ovarian
SN12C renal = test system: SN12C renal
SNB-19 CNS = test system: SNB-19 CNS
SNB-75 CNS = test system: SNB-75 CNS
SR leukemia = test system: SR leukemia
SW-620 colon = test system: SW-620 colon
T-47D breast = test system: T-47D breast
TK-10 renal = test system: TK-10 renal
U251 CNS = test system: U251 CNS
UACC-257 melanoma = test system: UACC-257 melanoma
UACC-62 melanoma = test system: UACC-62 melanoma
UO-31 renal = test system: UO-31 renal

## CC(=O)Oc1cc(C(C)C)c(OCCN(C)C)cc1C
786-0 renal
  GI50: > 100 µM
  TGI: > 100 µM
A498 renal
  GI50: > 100 µM
  TGI: > 100 µM
A549 NSCLC
  GI50: > 100 µM
  TGI: > 100 µM
ACHN renal
  GI50: > 100 µM
  TGI: > 100 µM
BT-549 breast
  GI50: > 100 µM
  TGI: > 100 µM
CAKI-1 renal
  GI50: > 100 µM
  TGI: > 100 µM
COLO 205 colon
  GI50: > 100 µM
  TGI: > 100 µM
DU-145 prostate
  GI50: > 100 µM
  TGI: > 100 µM
HCC-2998 colon
  GI50: > 100 µM
  TGI: > 100 µM
HCT-116 colon
  GI50: > 100 µM
  TGI: > 100 µM
HCT-15 colon
  GI50: > 100 µM
  TGI: > 100 µM
HL-60(TB) leukemia
  GI50: > 100 µM
  TGI: > 100 µM
HOP-62 NSCLC
  GI50: > 100 µM
  TGI: > 100 µM
HOP-92 NSCLC
  GI50: > 100 µM
  TGI: > 100 µM
HS 578T breast
  GI50: > 100 µM
  TGI: > 100 µM
HT29 colon
  GI50: > 100 µM
  TGI: > 100 µM
IGROV1 ovarian
  GI50: > 100 µM
  TGI: > 100 µM
K-562 leukemia
  GI50: > 100 µM
  TGI: > 100 µM
KM12 colon
  GI50: > 100 µM
  TGI: > 100 µM
M14 melanoma
  GI50: > 100 µM
  TGI: > 100 µM
MALME-3M melanoma
  GI50: > 100 µM
  TGI: > 100 µM
MCF7 breast
  GI50: > 100 µM
  TGI: > 100 µM
MDA-MB-231 breast
  GI50: > 100 µM
  TGI: > 100 µM
MDA-MB-435
  GI50: > 100 µM
  TGI: > 100 µM
NCI-H226 lung
  GI50: > 100 µM
  TGI: > 100 µM
NCI-H23 lung
  GI50: > 100 µM
  TGI: > 100 µM
NCI-H460 lung
  GI50: > 100 µM
  TGI: > 100 µM
NCI-H522 lung
  GI50: > 100 µM
  TGI: > 100 µM
NCI/ADR-RES ovarian
  GI50: > 100 µM
  TGI: > 100 µM
OVCAR-3 ovarian
  GI50: > 100 µM
  TGI: > 100 µM
OVCAR-4 ovarian
  GI50: > 100 µM
  TGI: > 100 µM
OVCAR-5 ovarian
  GI50: > 100 µM
  TGI: > 100 µM
PC-3 prostate
  GI50: > 100 µM
  TGI: > 100 µM
RPMI-8226 leukemia
  GI50: > 100 µM
  TGI: > 100 µM
RXF 393 renal
  GI50: > 100 µM
  TGI: > 100 µM
SF-268 CNS
  GI50: > 100 µM
  TGI: > 100 µM
SF-295 CNS
  GI50: > 100 µM
  TGI: > 100 µM
SF-539 CNS
  GI50: > 100 µM
  TGI: > 100 µM
SK-MEL-2 melanoma
  GI50: > 100 µM
  TGI: > 100 µM
SK-MEL-28 melanoma
  GI50: > 100 µM
  TGI: > 100 µM
SK-MEL-5 melanoma
  GI50: > 100 µM
  TGI: > 100 µM
SK-OV-3 ovarian
  GI50: > 100 µM
  TGI: > 100 µM
SN12C renal
  GI50: > 100 µM
  TGI: > 100 µM
SNB-19 CNS
  GI50: > 100 µM
  TGI: > 100 µM
SNB-75 CNS
  GI50: 50.9 µM
  TGI: > 100 µM
SR leukemia
  GI50: > 100 µM
  TGI: > 100 µM
SW-620 colon
  GI50: > 100 µM
  TGI: > 100 µM
T-47D breast
  GI50: > 100 µM
  TGI: > 100 µM
TK-10 renal
  GI50: > 100 µM
  TGI: > 100 µM
U251 CNS
  GI50: > 100 µM
  TGI: > 100 µM
UACC-257 melanoma
  GI50: > 100 µM
  TGI: > 100 µM
UACC-62 melanoma
  GI50: > 100 µM
  TGI: > 100 µM
UO-31 renal
  GI50: > 100 µM
  TGI: > 100 µM
